According to patent US20260325485A1, “COMPOSITIONS AND METHODS FOR TREATING PANCREATITIS” (The United States Government as represented by the …, priority 2022, published 2026):

Tests used:
[1] = tested on: trypsin; experiment: Trypsin activity in Gnptab−/− acinar cells; format: cell-based, mouse; conditions: 3 hours; 50 μM CA-074Me or 20 nM BafA1
Method: FIGS. 6A-6R show mechanisms mediating increased trypsin activity in Gnptab−/− pancreas. Trypsin activity and its regulation were analyzed in pancreatic (A, C, and D) tissue, (B and P-R) acinar cells, (E-H and O) lobules, and (I-N) subcellular fractions. In B, acinar cells were incubated for 3 hours without and with 20 nM BafAl or 50 μM CatB inhibitor CA-074Me; in P-R, with the cholesterol chelator methyl-β-cyclodextrin (MCD) at the indicated concentrations. In E-H, pancreatic lobules were double stained for TAP and LC3 or LAMP2; in O, for TAP and filipin. Quantitative colocalization analysis was done as detailed in FIG. 2. Each symbol in A, B, J-N, Q, and R represents an individual mouse or cell preparation (n=3-8 per condition). Each symbol in D, G, and H corresponds to 20 to 30 cells in a different field (n=9-20 fields from 3 WT and 3 KO mice or lobule preparations). Values are mean±SEM. **P<0.01, ***P<0.001 vs. WT tissue/lobules (A, G, and H) or corresponding WT subcellular fraction (K and M). ##P<0.01 vs. no inhibitors (B) or MCD (Q and R). ††P<0.01, †††P<0.001 vs. the other two fractions (L and N). Significance was determined by 2-tailed Student's t test (A, G, and H) or 1-way ANOVA followed by Tukey's multiple comparison test (B, K-N, Q, and R). Scale bars: 10 μm.
Activities of cathepsin (Cat) B and L, caspase-3, trypsin, and lysosomal acid lipase (LAL) were measured in pancreatic tissue or cell homogenates and subcellular fractions with fluorogenic assays using substrates specific for CatB (Z-Arg-Arg-AMC), CatL (Z-Phe-Arg-AMC), caspase-3-like ([…]), trypsin (Boc-Gln-Ala-Arg-AMC), as previously described (1-4, 6, 7); and for LAL (4-methylumbelliferyl oleate), as in (17). In measurements of CatL activity, the assay buffer also contained 50 μM CA-074me, a CatB inhibitor. LAL activity was measured in the absence and presence of the LAL inhibitor lalistat (100 μM) as the difference between these values (17).

[2] = tested on: pancreas; experiment: Drug treatment of Gnptab−/− mice: pancreatic total cholesterol; format: in vivo, mouse
Method: 12-week-old Gnptab−/− mice were subjected to daily i.p. injections of 20 mg/kg simvastatin or the same dose of T0901317 for 4 or 21 days.
Total cholesterol content was measured with Cholesterol Assay kit per manufacturer's instructions. Samples of mouse pancreas and liver, cell pellet homogenates, subcellular fractions, isolated mitochondria, and serum were diluted in the reaction buffer containing cholesterol probe and incubated at 37° C. for 1 h in the dark. To measure total cholesterol, the samples were subjected to digestion with cholesterol esterase. To measure non-esterified cholesterol, the esterase was omitted from the assay.

[3] = tested on: cerulein pancreatitis (CER-AP); experiment: Drug treatment of cerulein pancreatitis (CER-AP) in WT mice; format: in vivo, mouse
Method: FIGS. 10A-10N show deranged cholesterol metabolism causes acinar cell damage, while its normalization ameliorates experimental pancreatitis. (A-D) Cholesterol content and trypsin activity were measured (per mg protein) in WT mouse acinar cells incubated for 1 hour without and with methyl-β-cyclodextrin (MCD; 10 mM) or cholesterol-loaded MCD (MCD-Chol; 200 μg/mL), in the presence or absence of 100 nM CCK. Values are expressed relative to those in cells without MCD/MCD-Chol. (E-J) WT mice received daily i.p. injections of the LXR agonist T0901317 (T09), simvastatin (Sim; 20 mg/kg each), or vehicle. On day 4, mice were subjected to CER-AP and pancreata collected for analyses (see also FIG. 20). Cholesterol content (E), trypsin activity (F), and pancreas histopathology (H&E staining; G) were measured. (H, I, L, and N) IB analysis of markers/mediators of autophagy (LC3, p62), ER stress (CHOP, GRP-78), and mitophagy (Parkin). Ub, ubiquitylated proteins. (J) Mitochondrial fragmentation was assessed by immunostaining for Tom20, as detailed in FIG. 7G. (K and L) Mouse acinar cells were treated for 16 hours with LDL (30 μg/mL) or the combination of LDL and 10 μM U18666A. (M and N) Mice received injections of U18666A as detailed in FIG. 9B. Pancreas histopathology (H&E staining; M) and levels of autophagy markers/mediators (N) were measured. Each symbol in A-F and I represents an individual mouse or cell preparation. Values are mean±SEM from 3 to 7 mice or cell preparations per condition. ^§ P<0.05, ^§§ P<0.01 vs. control cells (without MCD/MCD-Chol). ***P<0.001 vs. saline-treated mice. ^#P<0.05, ^##P<0.01, ^###P<0.001 vs. CER-AP alone (no inhibitors). Significance was determined by 2-tailed Student's t test (A-D) or 1-way ANOVA followed by Tukey's multiple comparison test (E, F, and I). Scale bars: 10 μm.
FIGS. 20A-20C show simvastatin improves cerulein pancreatitis. Mice received daily i.p. injections of simvastatin (Sim; 20 mg/kg) or vehicle (see FIG. 10), and on day 4 were subjected to cerulein pancreatitis (CER-AP). (A) Pancreas histopathology (H&E staining; scale: 10 μm). (B) IB analysis of markers/mediators of autophagy (LC3, p62), ER stress (CHOP), and the MLN64/STARD3 protein mediating cholesterol transfer from LE/Ly to mitochondria. Each IB lane represents an individual mouse; ERK1/2 is the loading control. […] Ub, ubiquitylated proteins. (C) Pancreatitis responses. Values are mean±SEM from 7-13 mice for each condition. ***p<0.001 vs saline control. ^###p<0.001 vs CER-AP alone (no simvastatin). Significance was determined by 1-way ANOVA followed by Tukey's multiple comparisons test.
FIGS. 25A-25C show reducing cholesterol overload greatly ameliorates experimental pancreatitis. CER-AP responses were measured in (A) AclyAac or (C) WT mice treated with simvastatin or bempedoic acid (BemA). (B) Acinar cells were transfected with ACLA (or mock) siRNA and subjected to ex-vivo CCK-AP. Each symbol represents an individual mouse or cell preparation. Values are mean±SE. **p<0.01, ***p<0.001 vs saline treated control mice (or mock transfection); #p<0.05, ##p<0.01, ###p<0.001 vs CER/CCK-AP in control mice (i.e. without inhibitors) or cells.
Cerulein-induced (CER-AP) and L-arginine induced (Arg-AP) acute pancreatitis models were performed in 12-week-old C57BL/6 mice that received 7 hourly i.p. injections of 50 μg/kg cerulein or 3 hourly i.p. injections of 3.3 g/kg Arg; controls received physiologic saline injections. Mice were euthanized for analyses 7 hours after the first cerulein or 24 hours after the first Arg injection. Choline deficient, ethionine-supplemented (CDE) pancreatitis was induced in young (~5-weeks old) female mice fed either CDE or control diet. Mice were euthanized 72 hours after the diet initiation. These models have been described in detail (1-7).
12-week-old WT mice were subjected for 4 consecutive days to daily i.p. injections of 20 mg/kg simvastatin (8,9) or 20 mg/kg T0901317 (10); or 10 mg/kg U18666A for 15 days (11). […]

[4] = tested on: acinar cells; experiment: Oxygen consumption rate (OCR) of acinar cells, Seahorse; format: cell-based, mouse; conditions: etomoxir 40 μM
Method: FIGS. 7A-7Q show Gnptab ablation causes mitochondrial dysfunction in the pancreas. Mitochondrial functional parameters were measured in mitochondria isolated from pancreas (A, D, J, and M) or liver (N-P), in acinar cells (B, C, and I), and pancreatic (E-H, K, and L) and liver (Q) tissues of WT and KO mice. (A and N) Activities of mitochondrial ETC complexes I, II, IV, and V. (B, C, and I) Acinar cell oxygen consumption rates (OCR), reflecting mitochondrial OXPHOS, were measured in basal conditions and after treatment with the B-oxidation inhibitor etomoxir (40 μM), and normalized to total protein in the sample. (B) Representative OCR tracings in acinar cell suspension subjected to consecutive injections of the ATP synthase inhibitor oligomycin (Oligo; 3 μM), protonophore FCCP (2.7 μM), and […] rotenone plus antimycin A (R+A, 5 μM each; to correct for nonmitochondrial respiration). (C and I) ATP-linked respiration was calculated as the difference between basal OCR and that in Oligo-treated cells; the maximal OCR was obtained in FCCP-treated cells. (D and O) Mitochondrial membrane potential (ΔΨm) was measured with a tetraphenyl phosphonium ion (TPP+) electrode. FCCP (5 μM) was added to completely dissipate ΔΨm. (E) ATP was measured in pancreatic tissue homogenate with luciferin-luciferase assay. […] (G) Mitochondrial fragmentation was assessed by changes in Tom20 or VDAC immunostaining pattern, from an interconnected tubular mitochondrial network in WT to a predominantly disjoined/circular one in KO pancreas. […] (K) Long-chain acylcarnitines were measured with LC-MS/GC-MS. […] Significance was determined by 2-tailed Student's t test.
Oxygen consumption rates (OCR) were measured in live acinar cells using Seahorse XFe96, as in (15). […] In all within-set experiments the same volume of cell suspension were used with the same amount of protein; and partial oxygen pressure was monitored to ensure its stability in the cell suspension.

[5] = CER-AP, T0901317 or simvastatin 20 mg/kg i.p. daily

SMILES: CCCNC(=O)[C@H]1O[C@@H]1C(=O)N[C@H](C(=O)N1CCC[C@H]1C(=O)OC)[C@@H](C)CC [CA-074Me]
- Reduction of trypsin activity, Gnptab−/− acinar cells [1]: by half

SMILES: O=S(=O)(c1ccccc1)N(CC(F)(F)F)c1ccc(C(O)(C(F)(F)F)C(F)(F)F)cc1 [T0901317]
- total cholesterol content in pancreas, Gnptab−/− mice ([2]; 20 mg/kg i.p. daily for 4 or 21 days): Neither treatment changed
- pancreatic total cholesterol, Gnptab−/− mice ([2]; even for 3 weeks): failed to decrease
- CER-induced increase in MLN64 ([3]; CER-AP, 20 mg/kg i.p. daily): abrogated
- accumulation of LC3-II ([3]; CER-AP, 20 mg/kg i.p. daily): reduced
- accumulation of p62 ([3]; CER-AP, 20 mg/kg i.p. daily): reduced
- accumulation of ubiquitylated proteins ([3]; CER-AP, 20 mg/kg i.p. daily): reduced
- mitochondrial fragmentation (Tom20 IF) ([3]; CER-AP, 20 mg/kg i.p. daily): normalized
- CHOP levels ([3]; CER-AP, 20 mg/kg i.p. daily, ER stress): decreased
- pancreatitis-induced increase in total cholesterol [3, 5]: eliminated
- pancreatitis-induced increase in trypsin activity [3, 5]: eliminated
- pancreas histopathology in CER-AP ([3]; H&E, 20 mg/kg i.p. daily): improved
- pathologic responses of experimental pancreatitis (impaired autophagy, ER stress and others) ([3]; discussion statement): reduced
- experimental pancreatitis in WT mouse and ex vivo models ([3]; overall result): ameliorated

SMILES: CCOC(=O)[C@@]1(CCCCCCOc2ccc(Cl)cc2)CO1 [etomoxir]
- respiration rates, KO ([4]; Gnptab−/− (KO) acinar cells): not significantly reduced
- ATP-linked OCR, WT ([4]; WT acinar cells): inhibition
- basal OCR, WT ([4]; WT acinar cells): inhibition
